The values that follow come from patent publication US5576290A, “Compositions and methods for the diagnosis and treatment of psychogenic erectile dysfunction” (Competitive Technologies, Inc., priority 1994, dated 1996).

One data set relates to patients. As to conditions: cited from earlier work.
The subject of another data set is men. Particulars: oral, a few hundred men treated for depression, early 1980s; cited from earlier work.
The next data set concerns human volunteers. Description: Erectile response after subcutaneous injection of peptide in human volunteers. The data set is classed as in vivo. On the procedure:
The peptides described herein were prepared by sterile methods to a final concentration of 10 mg of peptide per ml of physiological saline. In addition to a full dose providing 10 mg of the peptide to the individual, doses of 0.1 to 0.3 ml (providing 1 mg to 3 mg of the peptide to each individual) of this stock material were also injected into volunteers, with a dose of 0.1 to 0.2 ml being the most often used dosage.
The onset of erection occurred about 1 to 2 hours after injection. […] A dose of 3.75 mg given to volunteers produced a long lasting erection of 4 to 6 hour duration. […] In some, this discomfort was considerable. […] Accordingly, although dosages of from about 1.0 mg to about 10.0 mg show the desired activity according to the present invention, it is preferred that the lower ranges of dosage which bring about the desired erection without undesirable side effects be used. Accordingly, it is preferred that dosages of about 1.5 mg to 2.5 mg of peptide be provided when the route of administration is subcutaneous or intramuscular. With other routes of administration, this range may require adjustment, however, it is still preferred that the lower range of adjusted effective dosages for the selected route of administration be used.

Where [1] appears, read: injection, alone or combined with phentolamine.

Bridge positions count the residues as written; N and C are the ends. Square brackets hold non-standard residues; d marks the D form. Ends that are not written are not given here. Peptide text beside a SMILES is read from it. Nle = CCCC[C@H](N)C(=O)O

In the case of “vasoactive intestinal peptide (HSDAVFTDNYTRLRKQMAVKKYLNSILN; ends and bridges not checked; UniProt P01282 125-152, looked up)”, the “induction of full erection necessary for intercourse” value in the data set on patients (intrapenile injections, trials) is “proven ineffective”.
On to `O=c1n(CCCN2CCN(c3cccc(Cl)c3)CC2)nc2ccccn12` [trazodone], for which the “erections as unexpected effect” value with men was “prolonged and painful erections”.
With `CCCC[C@H](NC(C)=O)C(=O)N[C@H]1CC(=O)NCCCC[C@@H](C(=O)NCC(N)=O)NC(=O)[C@H](Cc2c[nH]c3ccccc23)NC(=O)[C@H](CCCNC(=N)N)NC(=O)[C@@H](Cc2ccccc2)NC(=O)[C@H](Cc2c[nH]cn2)NC1=O` (Ac-[Nle]DH[dF]RWKG-NH2; lactam 2-7), in the data set on human volunteers (1.25 mg dose), the “duration of erection (sustained intermittently)” value is recorded as “up to 6 hours” and the induction of erection result is “induced an erection”. Further, the onset of erection entry in the data set with human volunteers (1.25 mg dose, compared with 2.5 mg) is given as “took longer to initially occur”. For the same molecule, in the data set on human volunteers (2.5 mg), the “time to erection following administration” value is ≤ 60 min. The stomach discomfort entry in the data set with human volunteers (2.5 mg and 1.25 mg doses) is on record as “No stomach discomfort was experienced”.
`COc1ccc(Cc2nccc3cc(OC)c(OC)cc23)cc1OC` [papaverine]: in the data set with patients (setting [1]), the “share of patients in whom erection is induced” value is “about 70%”; the side effects result was “pain, ecchymosis, and occasional episodes of priapism”.
